Molecules are shown by their SMILES. Like-named read-outs stand apart in the source and are kept apart here. Where only a bound is given, the exact number is not on record here.

By GI50 is commonly meant the concentration giving 50% growth inhibition. Lower therefore signals more potent growth inhibition.

In one assay the test system is A375-NRAS^Q61K cells. Description: CTGlo Cell Viability Assay, A375-NRAS^Q61K (A375.11) cells, 96 hours. It counts as cell-based, human. Particulars: A375.11 (A375-NRAS^Q61K) cells; for CTGlo A375.11 96 hours Emax / Emax: lowest % viability achieved. The essentials: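 A375 cells carrying BRAF V600E and NRAS Q61K were seeded at 250 cells/well with a 10-point half-log dose series (max 10 μM final). After 96 h at 37 °C, viability was read as ATP luminescence (CellTiter-Glo), background-subtracted and normalized to DMSO (100%). GI50 from 4-parameter fit; Emax is the lowest % viability.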

A further assay deals with T1, BRAF V600E (Homo sapiens, UniProt P15056+Q96SW2, V600E).
T1 construct: knock-in of the HiBiT tag to the endogenous BRAF V600E locus; host or cells: A375.10 (A375 clonal line, CRISPR HiBiT knock-in at the endogenous BRAF V600E locus)
T1 sequence (P15056 whole entry V600E): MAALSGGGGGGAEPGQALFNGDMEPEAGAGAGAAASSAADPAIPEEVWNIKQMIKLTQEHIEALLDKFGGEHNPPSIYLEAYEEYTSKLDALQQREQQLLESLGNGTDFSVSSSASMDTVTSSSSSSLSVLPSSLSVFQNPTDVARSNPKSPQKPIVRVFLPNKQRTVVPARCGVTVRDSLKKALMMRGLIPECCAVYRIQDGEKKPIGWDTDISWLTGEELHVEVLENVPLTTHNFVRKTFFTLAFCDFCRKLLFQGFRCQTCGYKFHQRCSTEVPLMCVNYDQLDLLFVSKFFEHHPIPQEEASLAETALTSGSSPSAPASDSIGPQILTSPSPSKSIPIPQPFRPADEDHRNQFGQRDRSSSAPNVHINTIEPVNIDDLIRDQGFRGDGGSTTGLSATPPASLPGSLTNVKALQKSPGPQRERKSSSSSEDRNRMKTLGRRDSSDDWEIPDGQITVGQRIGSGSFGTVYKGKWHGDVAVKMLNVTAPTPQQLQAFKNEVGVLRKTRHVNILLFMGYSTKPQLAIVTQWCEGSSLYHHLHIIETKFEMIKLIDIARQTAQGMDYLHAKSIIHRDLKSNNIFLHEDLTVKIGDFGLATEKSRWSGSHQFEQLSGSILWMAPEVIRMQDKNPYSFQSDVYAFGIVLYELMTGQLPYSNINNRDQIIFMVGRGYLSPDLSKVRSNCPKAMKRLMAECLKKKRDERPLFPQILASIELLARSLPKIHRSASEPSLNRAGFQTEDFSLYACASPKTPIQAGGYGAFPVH
T1 sequence (Q96SW2 whole entry): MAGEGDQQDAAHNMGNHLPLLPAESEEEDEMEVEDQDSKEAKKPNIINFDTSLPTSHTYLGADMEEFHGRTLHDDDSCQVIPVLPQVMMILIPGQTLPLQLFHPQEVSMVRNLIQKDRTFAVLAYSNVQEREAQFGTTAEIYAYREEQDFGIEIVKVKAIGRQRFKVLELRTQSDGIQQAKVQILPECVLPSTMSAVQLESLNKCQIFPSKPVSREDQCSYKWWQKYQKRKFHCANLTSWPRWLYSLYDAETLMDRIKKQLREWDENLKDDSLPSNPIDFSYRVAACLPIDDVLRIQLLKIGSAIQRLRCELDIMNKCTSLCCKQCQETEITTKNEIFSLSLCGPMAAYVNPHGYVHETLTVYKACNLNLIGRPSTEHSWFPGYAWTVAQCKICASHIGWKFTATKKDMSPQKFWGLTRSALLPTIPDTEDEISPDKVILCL
T1 sequence (Q16531 whole entry partner): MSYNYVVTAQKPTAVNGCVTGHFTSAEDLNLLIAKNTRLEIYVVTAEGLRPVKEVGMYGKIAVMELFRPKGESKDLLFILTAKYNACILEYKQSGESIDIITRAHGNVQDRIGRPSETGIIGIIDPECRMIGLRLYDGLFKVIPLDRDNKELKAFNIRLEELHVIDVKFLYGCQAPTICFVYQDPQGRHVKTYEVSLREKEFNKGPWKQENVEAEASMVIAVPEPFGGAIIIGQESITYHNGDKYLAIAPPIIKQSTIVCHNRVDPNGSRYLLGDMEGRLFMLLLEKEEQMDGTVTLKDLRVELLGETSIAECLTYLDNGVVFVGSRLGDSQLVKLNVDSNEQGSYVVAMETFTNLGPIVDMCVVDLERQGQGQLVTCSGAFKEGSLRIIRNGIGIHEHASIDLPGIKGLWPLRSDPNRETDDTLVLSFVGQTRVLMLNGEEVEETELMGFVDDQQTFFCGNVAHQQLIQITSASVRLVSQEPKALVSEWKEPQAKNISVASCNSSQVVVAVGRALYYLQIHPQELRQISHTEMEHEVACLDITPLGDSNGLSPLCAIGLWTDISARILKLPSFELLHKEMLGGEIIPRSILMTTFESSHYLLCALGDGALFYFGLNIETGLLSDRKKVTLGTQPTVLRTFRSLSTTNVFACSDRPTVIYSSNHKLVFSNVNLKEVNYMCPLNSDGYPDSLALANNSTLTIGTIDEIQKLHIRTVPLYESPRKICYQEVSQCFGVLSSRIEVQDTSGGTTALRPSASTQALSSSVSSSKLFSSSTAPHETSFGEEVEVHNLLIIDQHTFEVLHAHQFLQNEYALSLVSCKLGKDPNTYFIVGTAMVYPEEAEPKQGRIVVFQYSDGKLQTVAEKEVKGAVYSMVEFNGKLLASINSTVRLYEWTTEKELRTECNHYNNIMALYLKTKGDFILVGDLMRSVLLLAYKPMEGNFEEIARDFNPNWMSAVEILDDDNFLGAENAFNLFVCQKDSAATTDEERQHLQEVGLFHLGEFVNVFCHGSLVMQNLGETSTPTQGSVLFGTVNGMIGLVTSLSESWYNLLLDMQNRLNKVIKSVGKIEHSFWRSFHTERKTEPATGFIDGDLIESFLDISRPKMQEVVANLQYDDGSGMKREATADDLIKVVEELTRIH
Description: BRAF V600E HiBiT Degradation Assay. It counts as cell-based. The essentials:
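Endogenous HiBiT knock-in on BRAF V600E in A375 cells (clone A375.10); 11-point half-log series, top 10 μM, 2, 6 or 24 h at 37° C. Lytic HiBiT luminescence, background-subtracted, normalized to DMSO; 4-parameter fit gives DC50, Emax (residual protein) and IP (inflection point).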
(In general: With HiBiT, luminescence reflects the tagged protein that the partner subunit can reach.)

[1] abbreviates: A375.10 cells, BRAF V600E, 2 hours, inflection point, read-out: HiBiT-Degradation A375.10 BRAF 2 hours IP.
The mark [2] stands for this setting: A375.10 cells, BRAF V600E, 2 hours, read-out: HiBiT-Degradation A375.10 BRAF 2 hours DC50.
Where [3] appears, read: A375.10 cells, BRAF V600E, 6 hours, inflection point, read-out: HiBiT-Degradation A375.10 BRAF 6 hours IP.
Setting [4] is: A375.10 cells, BRAF V600E, 6 hours, read-out: HiBiT-Degradation A375.10 BRAF 6 hours DC50.
Setting [5] is: A375.10 cells, BRAF V600E, 6 hours, residual protein remaining.
Setting [6] is: A375.10 cells, HiBiT, BRAF V600E, 24 hours.
Setting [7] is: A375.10 cells, HiBiT, BRAF V600E, 24 hours, read-out: HiBiT-Degradation A375.10 BRAF 24 hours DC50.
Setting [8] is: A375.10 cells, HiBiT, BRAF V600E, 24 hours, read-out: HiBiT-Degradation A375.10 BRAF 24 hours IP.
Setting [9] is: A375.10 cells, BRAF V600E, 2 hours, residual protein remaining, read-out: HiBiT-Degradation A375.10 BRAF 2 hours Emax.

As to `CCN(C)S(=O)(=O)Nc1ccc(F)c(Oc2ccc3ncn(C4CC5(CCN(C6CCC(c7ccc(NC8CCC(=O)NC8=O)cc7F)CC6)CC5)C4)c(=O)c3c2)c1C#N` (single isomer, unassigned) [Compound 7, 6-[2-cyano-3-[[ethyl(methyl)sulfamoyl]amino]-6-fluoro-phenoxy]-3-[7-[4-[4-[(2,6-dioxo-3-piperidyl)amino]-2-fluoro-phenyl]cyclohexyl]-7-azaspiro[3.5]nonan-2-yl]-4-oxo-quinazoline], the GI50 in the assay with A375-NRAS^Q61K cells was < 1000 nM. In addition, the “CTGlo A375.11 96 hours Emax” value in the assay on A375-NRAS^Q61K cells is recorded as “*** (<=50%)”. Moreover, the DC50 on BRAF V600E (setting [1]), at BRAF V600E (setting [2]), on BRAF V600E (setting [3]), on BRAF V600E (setting [4]), at BRAF V600E (setting [7]) and at BRAF V600E (setting [8]) was < 1000 nM each time. Also, at BRAF V600E (A375.10 cells, BRAF V600E, 2 hours, residual protein remaining), the “HiBiT-Degradation A375.10 BRAF 2 hours Emax” value is “*** (<=50%)”. For the same compound, the “HiBiT-Degradation A375.10 BRAF 6 hours Emax” value at BRAF V600E (setting [5]) was “*** (<=50%)”. In addition, at BRAF V600E (setting [6]), the “HiBiT-Degradation A375.10 BRAF 24 hours Emax” value is “*** (<=50%)”.
On to `Cn1nc(N2CCC(=O)NC2=O)c2cc(F)c(C3CCC(N4CCC5(CC4)CC(n4cnc6ccc(Oc7c(F)ccc(NS(=O)(=O)C8CCCC8)c7C#N)cc6c4=O)C5)CC3)cc21` (single isomer, unassigned) [Compound 94, N-[2-cyano-3-[3-[7-[4-[3-(2,4-dioxohexahydropyrimidin-1-yl)-5-fluoro-1-methyl-indazol-6-yl]cyclohexyl]-7-azaspiro[3.5]nonan-2-yl]-4-oxo-quinazolin-6-yl]oxy-4-fluoro-phenyl]cyclopentanesulfonamide], for which, in the assay with A375-NRAS^Q61K cells, the GI50 was < 1000 nM. Besides, the “CTGlo A375.11 96 hours Emax” value with A375-NRAS^Q61K cells is recorded as “*** (<=50%)”. Further, the “HiBiT-Degradation A375.10 BRAF 2 hours Emax” value at BRAF V600E was “*** (<=50%)”. Besides, the DC50 at BRAF V600E (setting [1]), at BRAF V600E (setting [2]), on BRAF V600E (setting [3]), at BRAF V600E (setting [4]), on BRAF V600E (setting [7]) and at BRAF V600E (setting [8]) was < 1000 nM in each case. Further, on BRAF V600E (setting [5]), the “HiBiT-Degradation A375.10 BRAF 6 hours Emax” value was “*** (<=50%)”. The “HiBiT-Degradation A375.10 BRAF 24 hours Emax” value on BRAF V600E (setting [6]) is recorded as “*** (<=50%)”.
`CN(CCO)S(=O)(=O)Nc1ccc(F)c(Oc2ccc3ncn([C@H]4COC5(CCN(C6CC7(C6)CN(c6cc8c(cc6F)c(N6CCC(=O)NC6=O)nn8C)C7)CC5)C4)c(=O)c3c2)c1C#N` [Compound 130, (3R)-3-[6-[2-cyano-6-fluoro-3-[[2-hydroxyethyl(methyl)sulfamoyl]amino]phenoxy]-4-oxo-quinazolin-3-yl]-8-[2-[3-(2,4-dioxohexahydropyrimidin-1-yl)-5-fluoro-1-methyl-indazol-6-yl]-2-azaspiro[3.3]heptan-6-yl]-1-oxa-8-azaspiro[4.5]decane]: the GI50 with A375-NRAS^Q61K cells (Homo sapiens, 96 h) was > 10000 nM. Also, the Emax with A375-NRAS^Q61K cells (Homo sapiens, 96 h) lay within 50 to 90%; at BRAF V600E (setting [9]), 50 to 90%. In addition, the DC50 on BRAF V600E (setting [1]) and on BRAF V600E (setting [2]) was < 1000 nM each time.
In the case of `CCN(C)S(=O)(=O)Nc1ccc(F)c(Oc2ccc3ncn(C4CC5(C4)CN(C4CC6(CCN(c7cc8c(cc7F)c(N7CCC(=O)NC7=O)nn8C)CC6)C4)C5)c(=O)c3c2)c1C#N` (centres unmarked) [Compound 314, 6-[2-cyano-3-[[ethyl(methyl)sulfamoyl]amino]-6-fluoro-phenoxy]-3-[2-[7-[3-(2,4-dioxohexahydropyrimidin-1-yl)-5-fluoro-1-methyl-indazol-6-yl]-7-azaspiro[3.5]nonan-2-yl]-2-azaspiro[3.3]heptan-6-yl]-4-oxo-quinazoline], the 50% growth inhibitory concentration (GI50) in the assay on A375-NRAS^Q61K cells (Homo sapiens, 96 h) is < 1000 nM. Also, the Emax was 50 to 90% in the assay with A375-NRAS^Q61K cells (Homo sapiens, 96 h); < 50% on BRAF V600E (setting [9]); < 50% on BRAF V600E (A375.10 cells, HiBiT, BRAF V600E, 24 hours, read-out: HiBiT-Degradation A375.10 BRAF 24 hours Emax). The DC50 at BRAF V600E (setting [1]), on BRAF V600E (setting [2]), on BRAF V600E (setting [7]) and on BRAF V600E (setting [8]) was < 1000 nM each time.

The values above are taken from patent US20260297060A1, “COMPOUNDS FOR THE DEGRADATION OF MUTANT BRAF” (C4 THERAPEUTICS, INC., priority 2023, published 2026).
